Values of other authors in patent publication US9364479B2, “Use of a receptor-type kinase modulator for treating polycystic kidney disease” (SYMPHONY EVOLUTION, INC., priority 2010, dated 2016).

What was measured:
[1] = test system: bpk mice; settings: cited from earlier work
[2] = test system: bpk mice or PCK rat; settings: cited from earlier work
[3] = test system: PKD model; settings: in vivo; cited from earlier work

Compound: CC#CC(=O)Nc1ccc2ncnc(Nc3cccc(Br)c3)c2c1 [EKI-785]
- progression of PKD, in words [1]: effective in preventing the progression of PKD

Compound: COc1cc(Nc2c(C#N)cnc3cc(OCCCN4CCN(C)CC4)c(OC)cc23)c(Cl)cc1Cl [SKI-606]
- renal cyst formation and biliary duct abnormalities, in words [2]: ameliorated renal cyst formation and biliary duct abnormalities

Compound: CCOc1cc2ncc(C#N)c(Nc3ccc(F)c(Cl)c3)c2cc1NC(=O)/C=C/CN(C)C [EKB-569]
- cyst formation and renal function, in words [3]: effective in reducing cyst formation and maintaining normal renal function
